From ChEMBL document CHEMBL1201862, “PubChem BioAssay data set” (2004)
The source made the active and inactive calls.

Key:
[1] = biological target: T1, Estrogen receptor beta (Homo sapiens, UniProt Q92731);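 note: recombinant ER-beta bound to coactivator SRC1 peptide in presence of estradiol agonist; inhibitors block coactivator peptide binding and lower the FRET signal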
[2] = biological target: Ephrin type-A receptor 4 (Mus musculus, UniProt Q03137); experiment: inhibitors of EphA4 binding to KYL peptide, primary screen, biochemical, colorimetric, mouse EphA4 (AID 689); assay type: functional
Chain of Ephrin type-A receptor 4 (Q03137 whole entry): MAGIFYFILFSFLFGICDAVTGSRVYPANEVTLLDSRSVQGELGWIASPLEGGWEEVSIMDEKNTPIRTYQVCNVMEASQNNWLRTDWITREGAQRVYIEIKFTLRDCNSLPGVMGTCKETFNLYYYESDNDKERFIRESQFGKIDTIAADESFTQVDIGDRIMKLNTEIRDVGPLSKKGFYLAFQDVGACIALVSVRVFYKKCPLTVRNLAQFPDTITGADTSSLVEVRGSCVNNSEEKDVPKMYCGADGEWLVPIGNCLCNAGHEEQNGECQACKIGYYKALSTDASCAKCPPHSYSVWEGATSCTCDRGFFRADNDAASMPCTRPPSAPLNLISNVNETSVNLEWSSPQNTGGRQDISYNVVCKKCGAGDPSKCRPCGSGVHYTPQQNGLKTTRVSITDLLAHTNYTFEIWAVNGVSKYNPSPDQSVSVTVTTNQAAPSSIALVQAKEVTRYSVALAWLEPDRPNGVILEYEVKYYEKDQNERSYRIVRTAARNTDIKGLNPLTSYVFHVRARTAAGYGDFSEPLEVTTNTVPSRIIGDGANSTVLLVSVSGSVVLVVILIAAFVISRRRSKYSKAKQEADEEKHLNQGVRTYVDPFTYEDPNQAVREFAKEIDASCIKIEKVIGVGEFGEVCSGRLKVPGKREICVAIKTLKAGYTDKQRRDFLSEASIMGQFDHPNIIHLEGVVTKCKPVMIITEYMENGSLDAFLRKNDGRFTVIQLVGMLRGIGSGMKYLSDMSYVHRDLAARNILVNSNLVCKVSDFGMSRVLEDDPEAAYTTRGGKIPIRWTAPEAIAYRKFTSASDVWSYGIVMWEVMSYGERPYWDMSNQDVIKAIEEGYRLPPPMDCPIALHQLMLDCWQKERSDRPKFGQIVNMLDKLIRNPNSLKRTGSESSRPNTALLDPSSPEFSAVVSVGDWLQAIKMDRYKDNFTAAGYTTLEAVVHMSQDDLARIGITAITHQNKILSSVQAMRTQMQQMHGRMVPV

[3] = biological target: T2, Heat shock factor protein 1 (Mus musculus, UniProt P38532); experiment: inhibition of MG132-induced HSE-luciferase signal, confirmation, cell-based, NIH3T3, luminescence, dose retest (AID 2382); assay type: functional;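 note: NIH3T3 fibroblasts with HSF1-driven luciferase reporter stressed by proteasome inhibitor MG132; luminescence from HSF1-driven luciferase expression after 8 hours of MG132 stress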
T2 sequence (P38532 whole entry): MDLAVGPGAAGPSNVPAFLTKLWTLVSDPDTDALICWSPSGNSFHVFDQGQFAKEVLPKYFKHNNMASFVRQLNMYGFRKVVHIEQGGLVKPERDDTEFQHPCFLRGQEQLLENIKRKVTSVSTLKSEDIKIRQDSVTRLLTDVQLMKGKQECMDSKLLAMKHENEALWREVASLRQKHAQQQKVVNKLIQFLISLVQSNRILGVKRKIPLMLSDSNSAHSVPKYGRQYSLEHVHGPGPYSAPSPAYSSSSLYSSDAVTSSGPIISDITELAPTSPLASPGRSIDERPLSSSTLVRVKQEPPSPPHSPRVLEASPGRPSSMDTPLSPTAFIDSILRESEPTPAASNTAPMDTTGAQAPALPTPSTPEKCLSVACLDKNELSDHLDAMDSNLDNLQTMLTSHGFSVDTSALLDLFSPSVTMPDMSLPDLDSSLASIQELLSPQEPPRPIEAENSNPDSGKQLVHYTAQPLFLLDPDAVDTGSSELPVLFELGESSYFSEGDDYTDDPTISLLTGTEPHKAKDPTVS

[4] = biological target: T1, Estrogen receptor beta; experiment: ERβ–SRC-3 coactivator interaction inhibitors, confirmation, orthogonal assay, biochemical, ELISA, streptavidin-HRP readout (AID 1060)
[5] = biological target: T3, Aryl hydrocarbon receptor (Homo sapiens, UniProt P35869); experiment: Luminescence-based cell-based high throughput dose response assay for activators of the Aryl Hydrocarbon Receptor (AHR). [Related pubchem assays: 2796 (Primary screen (AHR activators in singlicate)), 2845 (Confirmation screen (AHR activators in triplicate)), 434939 (Counterscreen (PXR activators in triplicate)), 2804 (Summary (AHR activators))]; assay type: ADME
T3 sequence (P35869 whole entry): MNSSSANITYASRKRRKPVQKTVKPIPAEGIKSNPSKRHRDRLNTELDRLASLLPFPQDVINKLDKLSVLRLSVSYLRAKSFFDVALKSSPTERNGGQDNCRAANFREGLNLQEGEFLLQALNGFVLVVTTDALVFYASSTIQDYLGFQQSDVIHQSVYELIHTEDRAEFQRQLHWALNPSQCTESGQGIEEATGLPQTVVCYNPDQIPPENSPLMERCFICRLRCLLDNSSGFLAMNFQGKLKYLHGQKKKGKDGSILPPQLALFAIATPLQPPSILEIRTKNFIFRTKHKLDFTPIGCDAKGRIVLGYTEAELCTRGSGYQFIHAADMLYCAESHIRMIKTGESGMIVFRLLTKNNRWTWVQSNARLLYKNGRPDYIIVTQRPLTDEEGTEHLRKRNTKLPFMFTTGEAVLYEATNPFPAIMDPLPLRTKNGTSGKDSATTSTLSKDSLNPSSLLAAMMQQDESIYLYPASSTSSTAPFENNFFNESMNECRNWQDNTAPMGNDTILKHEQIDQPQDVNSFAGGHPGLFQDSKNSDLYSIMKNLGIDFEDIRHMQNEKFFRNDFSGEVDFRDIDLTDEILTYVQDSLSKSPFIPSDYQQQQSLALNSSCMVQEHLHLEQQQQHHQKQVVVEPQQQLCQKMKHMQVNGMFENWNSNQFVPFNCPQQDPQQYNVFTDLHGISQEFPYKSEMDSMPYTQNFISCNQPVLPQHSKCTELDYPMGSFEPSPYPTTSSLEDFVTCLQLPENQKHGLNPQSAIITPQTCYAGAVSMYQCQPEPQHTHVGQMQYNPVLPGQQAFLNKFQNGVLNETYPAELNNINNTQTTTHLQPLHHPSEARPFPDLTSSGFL

[6] = biological target: T4, Fatty acid synthase (Homo sapiens, UniProt P49327); experiment: FAS thioesterase domain inhibitors, dose response, biochemical, kinetic fluorescence intensity (AID 624326); assay type: functional;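 note: rate of fluorescence rise from hydrolysis of a fluorogenic O-methyl fluorescein ester substrate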
T4 sequence (P49327 whole entry, the tested form may be a part): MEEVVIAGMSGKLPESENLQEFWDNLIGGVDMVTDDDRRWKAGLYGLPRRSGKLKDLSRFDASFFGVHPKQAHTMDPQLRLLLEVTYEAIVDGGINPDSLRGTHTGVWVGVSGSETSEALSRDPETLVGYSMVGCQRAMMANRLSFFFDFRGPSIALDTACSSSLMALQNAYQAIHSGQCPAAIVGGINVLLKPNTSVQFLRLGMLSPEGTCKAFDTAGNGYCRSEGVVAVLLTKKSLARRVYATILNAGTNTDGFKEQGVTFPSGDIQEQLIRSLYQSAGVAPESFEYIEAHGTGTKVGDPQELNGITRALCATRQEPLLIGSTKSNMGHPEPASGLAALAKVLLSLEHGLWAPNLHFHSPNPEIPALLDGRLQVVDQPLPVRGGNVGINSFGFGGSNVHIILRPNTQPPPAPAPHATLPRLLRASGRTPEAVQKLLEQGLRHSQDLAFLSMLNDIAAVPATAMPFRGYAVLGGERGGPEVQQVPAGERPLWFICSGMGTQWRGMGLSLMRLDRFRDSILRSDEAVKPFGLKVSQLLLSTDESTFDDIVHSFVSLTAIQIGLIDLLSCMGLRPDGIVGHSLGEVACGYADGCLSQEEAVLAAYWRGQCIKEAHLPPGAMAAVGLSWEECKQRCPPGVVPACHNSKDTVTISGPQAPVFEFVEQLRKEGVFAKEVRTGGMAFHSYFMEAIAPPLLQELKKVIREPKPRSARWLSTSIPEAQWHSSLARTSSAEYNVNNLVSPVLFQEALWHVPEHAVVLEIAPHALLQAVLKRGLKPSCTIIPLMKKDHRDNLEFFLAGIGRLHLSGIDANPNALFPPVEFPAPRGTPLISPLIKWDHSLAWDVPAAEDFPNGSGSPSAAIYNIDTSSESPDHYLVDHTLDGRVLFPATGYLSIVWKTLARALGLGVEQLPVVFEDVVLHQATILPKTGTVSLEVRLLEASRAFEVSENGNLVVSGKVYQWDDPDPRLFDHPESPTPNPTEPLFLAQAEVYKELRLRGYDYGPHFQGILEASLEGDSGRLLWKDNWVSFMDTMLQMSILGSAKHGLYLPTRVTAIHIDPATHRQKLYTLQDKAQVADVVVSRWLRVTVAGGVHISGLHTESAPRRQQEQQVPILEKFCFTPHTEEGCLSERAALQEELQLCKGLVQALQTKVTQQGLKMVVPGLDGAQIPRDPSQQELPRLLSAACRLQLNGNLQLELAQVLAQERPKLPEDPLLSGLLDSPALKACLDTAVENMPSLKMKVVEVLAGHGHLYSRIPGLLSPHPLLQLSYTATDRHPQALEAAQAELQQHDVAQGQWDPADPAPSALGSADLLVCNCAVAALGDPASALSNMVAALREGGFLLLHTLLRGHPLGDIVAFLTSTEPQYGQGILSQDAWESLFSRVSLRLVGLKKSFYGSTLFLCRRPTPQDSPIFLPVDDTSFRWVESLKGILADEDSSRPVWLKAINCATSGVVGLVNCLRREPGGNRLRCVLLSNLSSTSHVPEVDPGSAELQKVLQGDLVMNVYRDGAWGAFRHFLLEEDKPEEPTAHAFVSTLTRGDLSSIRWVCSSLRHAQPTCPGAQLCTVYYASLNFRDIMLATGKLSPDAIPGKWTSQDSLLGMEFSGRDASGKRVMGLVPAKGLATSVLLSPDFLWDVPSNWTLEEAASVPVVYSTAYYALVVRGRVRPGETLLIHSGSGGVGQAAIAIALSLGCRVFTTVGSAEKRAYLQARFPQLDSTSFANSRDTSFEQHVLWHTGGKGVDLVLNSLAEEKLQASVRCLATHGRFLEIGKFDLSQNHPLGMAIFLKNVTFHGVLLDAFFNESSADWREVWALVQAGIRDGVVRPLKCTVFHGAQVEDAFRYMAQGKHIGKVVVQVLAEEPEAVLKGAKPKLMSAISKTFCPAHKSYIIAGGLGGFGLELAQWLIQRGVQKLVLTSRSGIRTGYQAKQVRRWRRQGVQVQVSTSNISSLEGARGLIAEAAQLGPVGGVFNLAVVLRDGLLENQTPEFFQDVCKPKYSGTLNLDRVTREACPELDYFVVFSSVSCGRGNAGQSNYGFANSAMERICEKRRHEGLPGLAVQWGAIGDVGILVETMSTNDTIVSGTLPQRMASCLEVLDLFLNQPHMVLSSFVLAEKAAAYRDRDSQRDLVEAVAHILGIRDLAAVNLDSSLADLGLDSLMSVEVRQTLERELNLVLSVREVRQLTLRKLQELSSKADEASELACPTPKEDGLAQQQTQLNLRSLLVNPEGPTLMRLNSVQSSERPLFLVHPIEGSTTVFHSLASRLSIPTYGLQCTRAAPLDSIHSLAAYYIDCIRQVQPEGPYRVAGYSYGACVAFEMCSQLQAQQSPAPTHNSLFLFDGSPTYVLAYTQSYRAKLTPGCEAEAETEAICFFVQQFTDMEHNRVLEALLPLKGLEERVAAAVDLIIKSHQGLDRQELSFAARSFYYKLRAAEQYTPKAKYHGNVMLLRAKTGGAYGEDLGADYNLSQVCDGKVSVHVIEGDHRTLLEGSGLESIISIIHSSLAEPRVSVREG

[7] = biological target: T4, Fatty acid synthase; experiment: FAS thioesterase domain inhibitors, dose response, biochemical, endpoint fluorescence intensity, uHTS hits (AID 624327); assay type: functional;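 note: fluorescence from hydrolysis of an O-methyl fluorescein acyl ester substrate by the enzyme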
[8] = tested on: Vero; experiment: cytotoxicity of synthesized analogs in Vero cells, SAR follow-up, cytotoxicity control for West Nile virus antiviral project, cell-based, set II (AID 2402); assay type: functional; conditions: Chlorocebus sabaeus

T1 sequence (Q92731 whole entry): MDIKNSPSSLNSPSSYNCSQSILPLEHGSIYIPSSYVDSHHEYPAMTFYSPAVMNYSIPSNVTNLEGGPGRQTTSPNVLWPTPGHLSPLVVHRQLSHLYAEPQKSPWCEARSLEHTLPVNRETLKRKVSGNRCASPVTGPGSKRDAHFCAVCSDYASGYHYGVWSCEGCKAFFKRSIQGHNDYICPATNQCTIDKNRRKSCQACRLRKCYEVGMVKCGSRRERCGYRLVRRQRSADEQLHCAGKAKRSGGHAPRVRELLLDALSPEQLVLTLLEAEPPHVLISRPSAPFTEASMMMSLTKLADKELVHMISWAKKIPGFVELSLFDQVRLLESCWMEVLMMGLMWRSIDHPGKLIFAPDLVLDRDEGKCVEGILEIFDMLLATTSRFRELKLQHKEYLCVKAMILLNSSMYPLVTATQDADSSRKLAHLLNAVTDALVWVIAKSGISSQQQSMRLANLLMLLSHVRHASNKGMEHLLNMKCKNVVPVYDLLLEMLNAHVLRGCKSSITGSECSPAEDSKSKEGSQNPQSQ

Q: How did the IC50 [1] turn out when `O=C(CCCn1c(=S)[nH]c2cc3c(cc2c1=O)OCO3)N1CCc2ccccc2C1` was run?
A: > 50 µM (not active)

Q: `O=C1/C(=C\c2nc3ccccc3[nH]2)SC(=S)N1c1ccc(F)cc1` was tested. Which IC50 [2] did it give?
A: > 100 µM (not active)

Q: `Cc1cc(=O)[nH]c(SCC(=O)Nc2nc3c(s2)CCCC3)n1` was tested. Which IC50 [1] did it give?
A: > 50 µM (not active)

Q: `COc1ccc(OC)c(NC(=O)CSc2nc3ccccc3cc2Cc2ccccc2)c1` was tested. Which EC50 [3] did it give?
A: > 195 µM (not active)

Q: What about the IC50 [2] of the same compound?
A: > 100 µM (not active)

Q: `Cn1nc(C(=O)Nc2sccc2C(N)=O)ccc1=O` was tested. Which IC50 [4] did it give?
A: > 50 µM (not active)

Q: For `CCOc1ccc(NC(=O)c2cc3ccccc3cc2OC)cc1`, which EC50 [5] is on record?
A: 2.17 µM (active)

Q: With `COC(=O)c1cc(C(=O)Nc2nnc(C3CC3)s2)cc([N+](=O)[O-])c1` as the compound, how does the EC50 [5] read?
A: 3.02 µM (active)

Q: And the IC50 [6]?
A: 13.8 µM (active)

Q: What about the IC50 [7] of the same compound?
A: 9.7 µM (active)

Q: Which CC50 [8] does the source give for `OC1c2c(F)cccc2N=C2CCCCN21` (stereo unspecified) here?
A: > 200 µM (active)
